Measured values: paper PMC7756666, “Non‐Stationary Complementary Non‐Uniform Sampling (NOSCO NUS) for Fast Acquisition of Serial 2D NMR Titration Data” (Angewandte Chemie (International Ed. in English), 2020)
Ends that are not written are not given here.

Target: T1, SH3 domain of α‐spectrin (Gallus gallus, UniProt P07751)
T1 construct: SH3 domain of α‐spectrin, has 60 residues
Assay: NMR titration (2D 1H-15N HSQC), p41 binding by SH3
Conditions: system as introduced in text; pH 3.5; 8 ligand-to-protein ratios; no spread given; read-out: KD (dissociation constant)
Description: The critical information on molecular dissociation constants, K D, and chemical shift perturbation (CSP) amplitudes, Δv, can be derived by individually fitting the correlated signal frequencies, observed in the 2D protein NMR spectra of a titration series, to the equation [Eq. 1]:(1) νI=νI,0+f(x,KD)·ΔνI
where [Eq. 2](2) f(x,KD)=KD+(1+x)cP-(KD+(1+x)cP)^2-4cP2x/2cP
v I is the observed chemical shift (I=^15N or^1H ), v I,0 is the pertaining reference chemical shift in the absence of ligand; Δv I is the maximal CSP amplitude due to ligand binding; x=c L/ c P is the ligand to protein molar ratio; c P is the total protein concentration.
NMR frequency sampling in an indirect time dimension is a lengthy process (fundamental reasons described in SI). Here we propose a method for complementary non‐uniform sampling (NUS) of entire titration series of 2D ^1H‐^15N HSQC spectra within less time even than required for a single conventional spectrum. For this we sample the indirect t 1(^15N) dimension as in a standard NUS experiment, yet with complementary sampling schedules for the different titration points such that each ligand‐to‐protein ratio, x, is sampled for a unique set of t 1 times (Figure 1). A full grid of 256 t 1 increments in a titration series with 8 different x ratios would, thus, be sampled in 8 complementary schedules of 32 points. […]

T1 sequence (P07751 967-1026 limits assumed): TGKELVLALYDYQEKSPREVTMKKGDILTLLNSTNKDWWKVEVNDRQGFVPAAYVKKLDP

Sequence APSYSPPPPP [p41] has a Kd of 9 mM.
